Assay results published in US5998462A, “5-alkyl indole compounds” (Allelix Biopharmaceuticals Inc., priority 1996, dated 1999).

Each compound was assayed against T1, 5-HT1D-like receptor (Oryctolagus cuniculus, UniProt P49144) (assay: Agonist assay: contraction of rabbit isolated saphenous vein (5-HT1D-like receptor agonist activity)). Conditions: not given.
T1 construct: Ring segments of the vein (4-5 mm in length) were cut and the endothelium gently removed; from tissue; host or cells: saphenous vein rings, endothelium removed, male New Zealand White rabbits
Set-up: species or system rabbit (New Zealand White)
Protocol: The saphenous veins from both the left and right side were cleaned of fat and connective tissue and placed in Krebs solution (118 mM NaCl, 11 mM glucose, 25 mM NaHCO3, 4.7 mM KCl, 2.5 mM CaCl2.2H2 O, 1.2 mM KH2 PO4, and 1.2 mM MgSO4.7H2 O. Ring segments of the vein (4-5 mm in length) were cut and the endothelium gently removed. The segments were mounted in 10 mL baths containing Krebs buffer and were constantly aerated with 95% oxygen/5% carbon dioxide and maintained at 37° C. and pH 7.4 in order to record the isometric tension. A resting tension of 2.5 g was applied and the tissues allowed to equilibrate for 90 minutes, with washing every 15-20 minutes. After the equilibrium period, the rings were depolarized by the addition of two aliquots of KCl (80 mM final concentration) separated by a 20 minute washing period. The tissues were then exposed to prazosin, idazoxan and indomethacin (all 1 μM final concentration) for 30 minutes in order to exclude the actions of α1 - and α2 -adrenergic receptors and prostaglandin receptors respectively. […] Responses were calculated as a percentage of the maximal contraction evoked by 80 mM KCl. Only one compound was tested per preparation.
EC50 represents the concentration of the compound which causes 50% of the maximum contraction effected by it.

T1 sequence (P49144 whole entry): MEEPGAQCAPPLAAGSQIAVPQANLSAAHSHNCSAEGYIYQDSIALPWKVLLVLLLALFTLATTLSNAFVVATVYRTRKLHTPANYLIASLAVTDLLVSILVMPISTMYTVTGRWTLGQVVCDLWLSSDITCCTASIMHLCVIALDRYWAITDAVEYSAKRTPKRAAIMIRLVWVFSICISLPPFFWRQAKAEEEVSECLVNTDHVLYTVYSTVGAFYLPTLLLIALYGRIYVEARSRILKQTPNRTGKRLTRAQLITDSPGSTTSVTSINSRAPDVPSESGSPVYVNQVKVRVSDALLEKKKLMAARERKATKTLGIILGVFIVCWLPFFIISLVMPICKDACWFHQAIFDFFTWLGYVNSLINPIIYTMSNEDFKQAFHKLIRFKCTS

Compound	EC50
CC(C)(C)c1ccc2[nH]cc(CCN3CCCC3)c2c1 [Example 8b, 5-Tert-butyl-3-(2-pyrrolidinylethyl)-1H-indole]	1200 nM
CCc1ccc2[nH]cc(C[C@H]3CCCN3C)c2c1 [Example 11b, (R)-5-Ethyl-3-[(N-methylpyrrolidin-2-yl)methyl]-1 H-indole]	15 nM
Cc1ccc2[nH]cc(C[C@H]3CCCN3C)c2c1 [Example 7e, (R)-3-[(N-Methylpyrrolidin-2-yl)methyl]-5-methyl-1H-indole]	100 nM
Cc1ccc2[nH]cc(C[C@@H]3CCCN3C)c2c1 [Example 7h, (S)-3-[(N-Methylpyrrolidin-2-yl)methyl]-5-methyl-1H-indole]	1800 nM
Cc1ccc2[nH]cc(CCN3CC=CC3)c2c1 [Example 8d, 5-Methyl-3-(2-pyrrolinylethyl)-1H-indole]	2900 nM
CC(C)c1ccc2[nH]cc(CCN3CCCC3)c2c1 [Example 8a, 5-Isopropyl-3-(2-pyrrolidinylethyl)-1H-indole]	250 nM
CC(C)c1ccc2[nH]cc(C[C@H]3CCCN3C)c2c1 [Example 7g, (R)-3-[(N-Methylpyrrolidin-2-yl)methyl]-5-isopropyl-1H-indole]	29 nM
Cc1ccc2[nH]cc(CCN3CCCC3)c2c1 [Example 8c, 5-Methyl-3-(2-pyrrolidinylethyl)-1H-indole]	590 nM
Cc1ccc2[nH]cc(C[C@H]3CCCN3)c2c1 [Example 7j, (R)-5-Methyl-3-[(pyrrolidin-2-yl)methyl]-1H-indole]	830 nM
CN1CCC[C@@H]1Cc1c[nH]c2ccc(C(C)(C)C)cc12 [Example 7f, (R)-3-[(N-Methylpyrrolidin-2-yl)methyl]-5-tert-butyl-1H-indole]	52 nM

Same assay, conditions: rabbit isolated saphenous vein rings, 37° C., pH 7.4; prazosin, idazoxan and indomethacin 1 μM present; read-out: EC50 (concentration of the compound which causes 50% of the maximum contraction effected by it)

Compound	EC50
CCc1ccc2[nH]cc(C3CCN(C)C3)c2c1 (stereo not drawn) [Example 11c, 5-Ethyl-3-(N-methylpyrrolidin-3-yl)-1H-indole]	900 nM
Cc1ccc2[nH]cc(C3CCN(C)C3)c2c1 (stereo not drawn) [Example 7i, 5-Methyl-3-(N-methylpyrrolidin-3-yl)-1H-indole]	470 nM
